Test [1] relates to endothelium-denuded rat aortic rings. The test is described as follows: Vasoconstrictor activity in endothelium-denuded rat aorta. As to conditions: mean ± SEM, ET-1 n = 7, KP-10 tissues from 4 animals, KP-54 tissues from 3 animals. On the procedure:
Rat thoracic aorta was cleaned of connective tissue and cut into 4 mm rings and the endothelial layer removed by gentle rubbing. Tissues were set to a basal tension at which the maximum response to 100 mM KCl was generated and subsequent responses to kisspeptins were expressed as % of this KCl response. Aortic rings were then contracted with 10 µM phenylephrine and 1 µM ACh was added; a reduction in the phenylephrine response of <10% was taken as evidence of removal of endothelium. […] Experiments were terminated by the addition of 100 mM KCl and agonist responses were expressed as a % of this KCl maximum.
Radioligand binding study data were analyzed using the iterative, non-linear curve fitting programs EBDA and LIGAND in the KELL package (Biosoft, Cambridge, UK). Pooled KD, BMAX and Hill slopes (nH) were expressed as mean±SEM and normalized to protein concentrations. In vitro pharmacology data agonist responses were expressed as %CaCl2 response in the paced atrial tissues and %KCl in the vasoconstrictor studies and data were fitted to a four parameter logistic equation using an iterative curve-fitting program (FigSys, Biosoft, Cambridge, UK) to obtain values for potency (pD2: the negative logarithm to the base 10 of the EC50) and maximum response (EMAX: %CaCl2 or %KCl, respectively) expressed as mean±SEM. Where appropriate, values were compared by one-way analysis of variance (ANOVA). In all cases P<0.05 was considered statistically significant and n-values were the number of animals or patients from which data were obtained.

Test [2] has as its target T1, kisspeptin receptor (Homo sapiens, UniProt Q969F8).
T1 construct: cryostat-cut sections of human (15 µm) or rat (10 µm) heart; from tissue; host or cells: human right atria (control, dilated cardiomyopathy, ischaemic heart disease), cryostat sections
As to the kind of experiment: Inotropic activity in human paced atrial strips. As for the experimental part: (§1) Paired rat or mouse atria, or 4 mm strips of human atrial appendage, were mounted in 10 ml organ baths containing oxygenated Krebs solution at 37°C as described previously. […] Experiments were terminated by the addition of 6.7 mM CaCl2 (final bath concentration 8.95 mM) and responses expressed as a % of this CaCl2 maximum. Radioligand binding study data were analyzed using the iterative, non-linear curve fitting programs EBDA and LIGAND in the KELL package (Biosoft, Cambridge, UK). Pooled KD, BMAX and Hill slopes (nH) were expressed as mean±SEM and normalized to protein concentrations. […] Where appropriate, values were compared by one-way analysis of variance (ANOVA). In all cases P<0.05 was considered statistically significant and n-values were the number of animals or patients from which data were obtained.

Test [3] addresses kisspeptin receptor (Rattus norvegicus, UniProt Q924U1). As to the kind of experiment: Inotropic activity in rat paced paired atria. The arrangement: Paired rat or mouse atria; from tissue; host or cells: rat paired atria. The following applies: read-out: EMAX (maximum positive inotropic response). As for the experimental part:
as §1

Bridges are numbered along the chain shown (N, C = ends). Where no end group is shown, it is not given here.

T1 sequence (Q969F8 whole entry): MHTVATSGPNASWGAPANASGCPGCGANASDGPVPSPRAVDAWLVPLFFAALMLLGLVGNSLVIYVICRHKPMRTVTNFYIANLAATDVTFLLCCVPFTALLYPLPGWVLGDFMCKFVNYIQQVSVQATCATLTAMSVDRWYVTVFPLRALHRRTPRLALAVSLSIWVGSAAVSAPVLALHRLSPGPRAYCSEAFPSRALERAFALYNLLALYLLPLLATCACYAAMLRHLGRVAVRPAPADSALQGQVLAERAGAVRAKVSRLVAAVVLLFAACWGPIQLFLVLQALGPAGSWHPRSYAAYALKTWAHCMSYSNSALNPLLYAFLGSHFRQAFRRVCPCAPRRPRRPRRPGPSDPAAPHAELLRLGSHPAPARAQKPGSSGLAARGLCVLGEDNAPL
kisspeptin receptor (Rattus norvegicus, UniProt Q924U1), sequence (Q924U1 whole entry): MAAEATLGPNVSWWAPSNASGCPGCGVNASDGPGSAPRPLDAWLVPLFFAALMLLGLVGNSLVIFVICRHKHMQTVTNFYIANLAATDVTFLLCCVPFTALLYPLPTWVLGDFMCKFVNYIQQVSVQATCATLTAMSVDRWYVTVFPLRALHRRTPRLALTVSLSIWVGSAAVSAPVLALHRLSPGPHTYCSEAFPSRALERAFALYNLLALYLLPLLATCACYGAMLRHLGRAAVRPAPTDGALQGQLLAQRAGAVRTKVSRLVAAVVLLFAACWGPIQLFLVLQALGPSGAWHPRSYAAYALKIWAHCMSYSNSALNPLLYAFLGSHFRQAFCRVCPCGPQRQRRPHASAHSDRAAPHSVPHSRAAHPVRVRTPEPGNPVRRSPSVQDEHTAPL

As for “ET-1: ET-1 (human) from Peptide Institute, control vasoconstrictor (CSCSSLMDKECVYFCHLDIIW; disulfide 1-15, 3-11; ends not checked; UniProt P05305 53-73, looked up)”, in test [1] (% of 100 mM KCl maximum, endothelium-denuded rat aorta), the “EMAX (maximum vasoconstrictor response)” value was determined as 99±1 % KCl. Moreover, the “pD2 (vasoconstriction)” value in test [1] (endothelium-denuded rat thoracic aortic rings, KP-10, KP-54 10^−12–3×10^−9 M, ET-1 10^−10–3×10^−7 M) stood at 8.13±0.11.
For orientation: EC50 means the concentration needed to bring the measured effect to its halfway point. A higher EC50 goes with a less potent agent. One may read the Emax as the greatest response seen or fitted, relative to the assay's reference. In the case of `CC(C)C[C@H](NC(=O)CNC(=O)[C@H](Cc1ccccc1)NC(=O)[C@H](CO)NC(=O)[C@H](CC(N)=O)NC(=O)[C@H](Cc1c[nH]c2ccccc12)NC(=O)[C@H](CC(N)=O)NC(=O)[C@@H](N)Cc1ccc(O)cc1)C(=O)N[C@@H](CCCNC(=N)N)C(=O)N[C@@H](Cc1ccccc1)C(N)=O` [KP-10], the EC50 on kisspeptin receptor [2] was 0.102 nM. Also, the Emax at kisspeptin receptor [2] (% of CaCl2 maximum (8.95 mM final), human atrial strips, mean ± SEM, n = 5, read-out: EMAX (maximum positive inotropic response)) turned out to be 59 ± 10%; at kisspeptin receptor [3], 31 ± 5%.

Values taken from publication PMC3222648, “Inotropic Action of the Puberty Hormone Kisspeptin in Rat, Mouse and Human: Cardiovascular Distribution and Characteristics of the Kisspeptin Receptor” (PLoS ONE, 2011).
